The record followed here is patent publication US6552061B1, “Amino acid derivatives and anti-inflammatory agents” (Ajinomoto Co., Inc., priority 1998, dated 2003).

Format in all cases: cell-based
In one experiment the test system is NF-κB. The experiment is described as follows: Test for an Activity of Inhibiting NF-κB Activation (gel shift assay, UVB-irradiated human epidermal cells). The following applies: light or radiation study, read-out: inhibitory rate (%) of NF-κB activation. The procedure: Test for an Activity of Inhibiting NF-κB Activation
(§1) Eighteen hours later, the culture solution was replaced with a phenol red-free medium. The cells were subjected to UV irradiation (UVB: 50 mJ/m^2)using Dermaray M-DMR-80 (supplied by Toshiba Iryo Yohin KK). After from 4 to 5 hours passed, the cells were recovered, and the nucleoproteins were extracted in a usual manner. With respect to the resulting nucleoproteins, NF-κB activated by gel shift assay was detected. The amount of NF-κB was determined by measuring a radioactivity of an NF-κB band using a bio-imaging analyzer BAS 2000 (supplied by Fuji Photo Film). The rate of inhibition of NF-κB activation on the test compound was calculated using formula (III).
Rate (%) of inhibition of NF-κB activation={1−(A1−A3)/(A2−A3)}×100 (III)
A1: radioactivity of an NF-κB band in the addition of the test compound
A2: radioactivity of an NF-κB band in the non-addition of the test compound
A3: radioactivity of an NF-κB band when the test compound was not added, nor was UV irradiation conducted
(Mobility shift assays separate free from complexed probe on a gel.)

Another experiment has as its system AP-1. As to the kind of experiment: Test for an Activity of Inhibiting AP-1 Activation (gel shift assay, UVA-irradiated human dermal fibroblasts). The following applies: AP1, light or radiation study, read-out: inhibitory rate (%) of AP-1 activation. On the procedure: Test for an Activity of Inhibiting AP-1 Activation
as §1, with “The test compound was added to human dermal fibroblasts which had become confluent in a culture plate. Eighteen” for “Eighteen”, “(UVA: 20 J/cm^2) using” for “(UVB: 50 mJ/m^2)using”, “AP-1” for “NF-κB”, “(IV).” for “(III).”
Rate (%) of inhibition of AP-1 activation={1−(A4−A6)/(A5−A6)}×100 (IV)
A4: radioactivity of an AP-1 band in the addition of the test compound
A5: radioactivity of an AP-1 band in the non-addition of the test compound
A6: radioactivity of an AP-1 band when the test compound was not added, nor was UV irradiation conducted

A further experiment has as its system IL-1α. As to the kind of experiment: Test for an Activity of Inhibiting IL-1α Expression (ELISA, UVB-irradiated human epidermal cells). The following applies: light or radiation study, 24 h, read-out: inhibitory rate (%) of IL-1α expression. The procedure: Test for an Activity of Inhibiting IL-1α Expression
(§2) The test compound was added to human epidermal cells which had become confluent in a culture plate. Eighteen hours later, the culture solution was replaced with a phenol red-free medium. The cells were subjected to UV irradiation (UVB: 50 mJ/cm^2) using Dermaray M-DMR-80 (supplied by Toshiba Iryo Yohin KK). After 24 hours passed, the culture solution was recovered, and the IL-1α concentration in the culture solution was measured using IL-1α·ELISA System (supplied by Amersham Corp.). The rate of inhibition of IL-1α expression on the test compound was calculated using formula (V).
Rate (%) of inhibition of IL-1α expression={1−(B1−B3)/(B2−B3)}×100 (V)
B1: IL-1α concentration in the addition of the test compound
B2: IL-1α concentration in the non-addition of the test compound
B3: IL-1α concentration when the test compound was not added, nor was UV irradiation conducted
For orientation: ELISA stands for enzyme-linked immunosorbent assay.

The subject of the next experiment is collagenase. The experiment is described as follows: Test for an Activity of Inhibiting Collagenase Expression (MMP-1 ELISA, UVA-irradiated human dermal fibroblasts). The following applies: Fibroblast, light or radiation study, 24 h, read-out: inhibitory rate (%) of collagenase expression. On the procedure:
Test for an Activity of Inhibiting Collagenase Expression
as §2, with “dermal fibroblasts” for “epidermal cells”, “(UVA; 20 J/cm^2)” for “(UVB: 50 mJ/cm^2)”, “collagenase” for “IL-1α”, “MMP-1α·ELISA” for “IL-1α·ELISA”, “(VI).” for “(V).”
Rate (%) of inhibition of collagenase expression={1−(B4−B6)/(B5−B6)}×100 (VI)
B4: collagenase concentration in the addition of the test compound
B5: collagenase concentration in the non-addition of the test compound
B6: collagenase concentration when the test compound was not added, nor was UV irradiation conducted

As for `CCOC(=O)[C@H](CO)NCc1ccccc1O` [N-(2-hydroxybenzyl)-L-serine ethyl ester], the inhibition at 1000 µM with NF-κB (concentration 1 mM) worked out at 37%; in the experiment on AP-1 (concentration 1 mM), 73%. Moreover, the results for the inhibition at 2000 µM with NF-κB (concentration 2 mM) and in the experiment with IL-1α (concentration 2 mM) were 56% and 44%, respectively. Further, in the experiment with collagenase (concentration 0.5 mM), the inhibition at 500 µM amounted to 30%.

As for `CCCCCCCCCCCCNC(=O)[C@H](Cc1ccc(O)cc1)NCc1ccccc1O` [N-(2-hydroxybenzyl)-L-tyrosine lauryl amide], the inhibition at 10 µM was found to be 39% in the experiment on NF-κB (concentration 10 μM), 40% in the experiment with AP-1 (concentration 10 μM), 56% in the experiment with IL-1α (concentration 10 μM) and 84% in the experiment on collagenase (concentration 10 μM). Besides, the inhibition at 20 µM with AP-1 (concentration 20 μM) is 55%. The inhibition at 1 µM in the experiment on collagenase (concentration 1 μM) turned out to be 42%.
